Assay results: US4762840A, “Pyrimido[2,1-b]benzothiazoles having antiallergic activity” (Roussel Uclaf, priority 1984, dated 1988)
pIC50: −log10 of the molar value.

test system: lungs; experiment: Antigen-induced elevation of lung perfusion pressure (isolated perfused sensitized lung, ovalbumen); design: species or system guinea pig (Dunkin Hartley); conditions: Cavia porcellus; perfused lungs of ovalbumen-sensitized guinea pigs; compound in krebs fluid 30 minutes prior to second antigen dose (15 μg ovalbumen); at least four lungs per concentration; read-out: IC50 (inhibition of antigen induced broncho-constriction)
Experimental: Antigen-induced elevation of lung perfusion pressure
Male Dunkin Hartley guinea pigs (Porcellus) weighing between 450-700 g were used (four per test concentration) and were housed in cages. The animals were sensitized by two weekly exposures to 1% W/V aerosol ovalbumen. The animals were anaesthetized with 2.5 mg/kg diazepam i.p. and 1 ml/kg Hyponorm i.m. Following anaethesia, the animals were exsanguinated by severing both carotid arteries and the chest was opened and the lungs removed, split into two at the carina and both cannulated via the main lobar bronchus and connected to a perfusion system. The lungs were perfused with aerated krebs fluid (95% O2 :5% CO2) at 37° C. and 5 μg in 0.1 ml Ovalbumen was injected through an injection port proximal to each lung. Elevation of perfusion pressure by the antigen was recorded and sixty minutes later, 15 μg of ovalbumen were administered. The test compounds were added to the krebs fluid reservoir thirty minutes prior to the second antigen dose. For each weekly batch of animals used, control measurements were made without treatment (n=10 ). The second antigen response was expressed as a percentage of the first. For each test, at least four lungs from four different animals were used per concentration. The percentage inhibition of antigen induced broncho-constriction was calculated.

Row | Structure (SMILES) | pIC50
1 | CCOC(=O)C(C)c1ccc2c(c1)sc1nc(=O)ccn12 (stereo not drawn) [Example 2, Ethyl 2-oxo-2H-pyrimido[2,1-b]benzothiazole-8-α-methylacetate] | < 4.00
2 | CCOC(=O)Cc1ccc2c(c1)sc1nc(=O)cc(-c3ccccc3)n12 [Example 3, Ethyl 2-oxo-4-phenyl-2H-pyrimido[2,1-b]benzothiazole-8-acetate] | 6.00
3 | COC(=O)Cc1ccc2c(c1)sc1nc(=O)cc(-c3ccccc3)n12 [Example 4, Methyl 2-oxo-4-phenyl-2H-pyrimido[2,1-b]benzothiazole-8-acetate] | 5.00
4 | CCCOC(=O)Cc1ccc2c(c1)sc1nc(=O)cc(-c3ccccc3)n12 [Example 5, n-Propyl 2-oxo-4-phenyl-2H-pyrimido[2,1-b]benzothiazole-8-acetate] | > 5.00
5 | CC(C)OC(=O)Cc1ccc2c(c1)sc1nc(=O)cc(-c3ccccc3)n12 [Example 6, Isopropyl 2-oxo-4-phenyl-2H-pyrimido[2,1-b]benzothiazole-8-acetate] | 5.00 to 6.00
6 | CCCCOC(=O)Cc1ccc2c(c1)sc1nc(=O)cc(-c3ccccc3)n12 [Example 7, n-Butyl 2-oxo-4-phenyl-2H-pyrimido[2,1-b]benzothiazole-8-acetate] | < 5.00
7 | CCOC(=O)Cc1ccc2c(c1)sc1nc(=O)cc(-c3ccc(OC)cc3)n12 [Example 9, Ethyl 4-(4-methoxyphenyl)-2-oxo-2H-pyrimido[2,1-b]benzothiazole-8-acetate] | 6.00
8 | CCOC(=O)Cc1ccc2c(c1)sc1nc(=O)cc(-c3ccc([N+](=O)[O-])cc3)n12 [Example 10, Ethyl 4-(4-nitrophenyl)-2-oxo-2H-pyrimido[2,1-b]benzothiazole-8-acetate] | 4.00 to 5.00
9 | CCOC(=O)Cc1ccc2c(c1)sc1nc(=O)cc(-c3ccc(Cl)cc3)n12 [Example 11, Ethyl 4-(4-chlorophenyl)-2-oxo-2H-pyrimido[2,1-b]benzothiazole-8-acetate] | 5.00
10 | CCOC(=O)Cc1ccc2c(c1)sc1nc(=O)cc(-c3ccccc3Cl)n12 [Example 12, Ethyl 4-(2-chlorophenyl)-2-oxo-2H-pyrimido[2,1-b]benzothiazole-8-acetate] | 6.00 to 7.00
11 | CCOC(=O)Cc1ccc2c(c1)sc1nc(=O)cc(-c3ccc(C)cc3)n12 [Example 13, Ethyl 4-(4-methylphenyl)-2-oxo-2H-pyrimido[2,1-b]benzothiazole-8-acetate] | > 6.00
12 | CCOC(=O)Cc1ccc2c(c1)sc1nc(=O)cc(-c3cccc(Cl)c3)n12 [Example 14, Ethyl 4-(3-chlorophenyl)-2-oxo-2H-pyrimido[2,1-b]benzothiazole-8-acetate] | ≥ 6.00
13 | CCOC(=O)Cc1ccc2c(c1)sc1nc(=O)cc(C)n12 [Example 15, Ethyl 4-methyl-2-oxo-2H-pyrimido[2,1-b]benzothiazole-8-acetate] | 4.00 to 5.00
14 | CCOC(=O)Cc1ccc2c(c1)sc1nc(=O)cc(CC)n12 [Example 16, Ethyl 4-ethyl-2-oxo-2H-pyrimido[2,1-b]benzothiazole-8-acetate] | 4.00
15 | CCCc1cc(=O)nc2sc3cc(CC(=O)OCC)ccc3n12 [Example 17, Ethyl 2-oxo-4-n-propyl-2H-pyrimido[2,1-b]benzothiazole-8-acetate] | 5.00 to 6.00
16 | CCCCc1cc(=O)nc2sc3cc(CC(=O)OCC)ccc3n12 [Example 18, Ethyl 4-n-butyl-2-oxo-2H-pyrimido[2,1-b]benzothiazole-8-acetate] | 5.00
17 | CCOC(=O)C(C)c1ccc2c(c1)sc1nc(=O)cc(-c3ccccc3)n12 (stereo not drawn) [Example 20, Ethyl α-methyl-2-oxo-4-phenyl-2H-pyrimido[2,1-b]benzothiazole-8-acetate] | 7.00
18 | CCOC(=O)C(C)c1ccc2c(c1)sc1nc(=O)cc(-c3ccc(Cl)cc3)n12 (stereo not drawn) [Example 22, Ethyl α-methyl 4-(4-chlorophenyl)-2-oxo-2H-pyrimido[2,1-b]benzothiazole-8-acetate] | 6.00 to 7.00
19 | CCOC(=O)C(C)c1ccc2c(c1)sc1nc(=O)cc(-c3cccc(Cl)c3)n12 (stereo not drawn) [Example 23, Ethyl α-methyl 4-(3-chlorophenyl) 2-oxo-2H-pyrimido[2,1-b]benzothiazole-8-acetate] | ≥ 6.00
20 | CCCc1cc(=O)nc2sc3cc(C(C)C(=O)OCC)ccc3n12 (stereo not drawn) [Example 24, Ethyl α-methyl-2-oxo-4-n-propyl-2H-pyrimido[2,1-b]benzothiazole-8-acetate] | < 5.00
21 | CCOC(=O)Cc1ccc2c(c1)sc1nc(=O)cc(C(C)C)n12 [Example 25, Ethyl 4-isopropyl-2-oxo-2H-pyrimido[2,1-b]benzothiazole-8-acetate] | 4.00 to 5.00

Row | Structure (SMILES) | pIC50
22 | CCOC(=O)C(C)c1ccc2c(c1)sc1nc(=O)cc(Cc3ccccc3)n12 (stereo not drawn) [Example 27, Ethyl α-methyl-4-benzyl-2-oxo-2H-pyrimido[2,1-b]benzothiazole-8-acetate] | 4.00 to 5.00
23 | CCOC(=O)C(C)c1ccc2c(c1)sc1nc(=O)cc(C(C)C)n12 (stereo not drawn) [Example 28, Ethyl α-methyl-4-isopropyl-2-oxo-2H-pyrimido[2,1-b]benzothiazole-8-acetate] | 4.00 to 5.00
24 | CCOC(=O)C(CC)c1ccc2c(c1)sc1nc(=O)cc(-c3ccccc3)n12 (stereo not drawn) [Example 29, Ethyl α-ethyl-4-phenyl-2-oxo-2H-pyrimido[2,1-b]benzothiazole-8-acetate] | 7.00
25 | CCOC(=O)Cc1ccc2c(c1)sc1nc(=O)cc(C3CCCCC3)n12 [Example 30, Ethyl 4-cyclohexyl-2-oxo-2H-pyrimido[2,1-b]benzothiazole-8-acetate] | 5.00 to 6.00
26 | CCOC(=O)C(C)c1ccc2c(c1)sc1nc(=O)cc(C3CCCCC3)n12 (stereo not drawn) [Example 31, Ethyl α-methyl-4-cyclohexyl-2-oxo-2H-pyrimido[2,1-b]benzothiazole-8-acetate] | > 5.00
27 | CCCC(C(=O)OCC)c1ccc2c(c1)sc1nc(=O)cc(-c3ccccc3)n12 (stereo not drawn) [Example 32, Ethyl α-propyl-4-phenyl-2-oxo-2H-pyrimido[2,1-b]benzothiazole-8-acetate] | 6.00
28 | CCOC(=O)C(c1ccc2c(c1)sc1nc(=O)cc(-c3ccccc3)n12)C(C)C (stereo not drawn) [Example 33, Ethyl α-isopropyl-4-phenyl-2-oxo-2H-pyrimido[2,1-b]benzothiazole-8-acetate] | 4.00 to 5.00
29 | CCCCC(C(=O)OCC)c1ccc2c(c1)sc1nc(=O)cc(-c3ccccc3)n12 (stereo not drawn) [Example 34, Ethyl α-butyl-4-phenyl-2-oxo-2H-pyrimido[2,1-b]benzothiazole-8-acetate] | 5.00 to 6.00
30 | CC(C)OC(=O)C(C)c1ccc2c(c1)sc1nc(=O)cc(-c3ccccc3)n12 (stereo not drawn) [Example 35, Isopropyl α-methyl-4-phenyl-2-oxo-2H-pyrimido[2,1-b]benzothiazole-8-acetate] | 6.00 to 7.00
31 | CCOC(=O)C(C)(C)c1ccc2c(c1)sc1nc(=O)cc(-c3ccccc3)n12 [Example 36, Ethyl α,α-dimethyl-4-phenyl-2-oxo-2H-pyrimido[2,1-b]benzothiazole-8-acetate] | 5.00 to 6.00
32 | CCOC(=O)C(C)(CC)c1ccc2c(c1)sc1nc(=O)cc(-c3ccccc3)n12 (stereo not drawn) [Example 37, Ethyl α-ethyl-α-methyl-4-phenyl-2-oxo-2H-pyrimido[2,1-b]benzothiazole-8-acetate] | 6.00
33 | CCCC(C)(C(=O)OCC)c1ccc2c(c1)sc1nc(=O)cc(-c3ccccc3)n12 (stereo not drawn) [Example 38, Ethyl α-methyl-α-propyl-4-phenyl-2-oxo-2H-pyrimido[2,1-b]benzothiazole-8-acetate] | 6.00
34 | CC(C(=O)OC(C)(C)C)c1ccc2c(c1)sc1nc(=O)cc(-c3ccccc3)n12 (stereo not drawn) [Example 39, t-Butyl α-methyl-4-phenyl-2-oxo-2H-pyrimido[2,1-b]benzothiazole-8-acetate] | 7.00
35 | CCOC(=O)C(CC)(CC)c1ccc2c(c1)sc1nc(=O)cc(-c3ccccc3)n12 [Example 40, Ethyl α,α-diethyl-4-phenyl-2-oxo-2H-pyrimido[2,1-b]benzothiazole-8-acetate] | 4.00 to 5.00
36 | CCCC(CC)(C(=O)OCC)c1ccc2c(c1)sc1nc(=O)cc(-c3ccccc3)n12 (stereo not drawn) [Example 41, Ethyl α-ethyl-α-propyl-4-phenyl-2-oxo-2H-pyrimido[2,1-b]benzothiazole-8-acetate] | 4.00 to 5.00
37 | CCCCC(C)(C(=O)OCC)c1ccc2c(c1)sc1nc(=O)cc(-c3ccccc3)n12 (stereo not drawn) [Example 42, Ethyl α-butyl-α-methyl-4-phenyl-2-oxo-2H-pyrimido[2,1-b]benzothiazole-8-acetate] | 4.00 to 5.00
38 | CC(C(=O)OCC(C)(C)C)c1ccc2c(c1)sc1nc(=O)cc(-c3ccccc3)n12 (stereo not drawn) [Example 43, 2,2-Dimethylpropyl α-methyl-4-phenyl-2-oxo-2H-pyrimido[2,1-b]benzothiazole-8-acetate] | 7.00
39 | CN(C)C(=O)Cc1ccc2c(c1)sc1nc(=O)cc(-c3ccccc3)n12 [Example 44, N,N-dimethyl-2-oxo-4-phenyl-2H-pyrimido[2,1-b]benzothiazole-8-acetamide] | 4.00 to 5.00
40 | CCNC(=O)Cc1ccc2c(c1)sc1nc(=O)cc(-c3ccccc3)n12 [Example 45, N-ethyl-2-oxo-4-phenyl-2H-pyrimido[2,1-b]benzothiazole-8-acetamide] | 4.00 to 5.00
41 | O=C(Cc1ccc2c(c1)sc1nc(=O)cc(-c3ccccc3)n12)N1CCOCC1 [Example 46, 1-(N-morpholino)-2-(2-oxo-4-phenyl-2H-pyrimido[2,1-b]benzothiazole-8-yl)-ethanone] | < 4.00
